# In patent US20020137929A1, “1 - (3-heterocyclylphenyl) isothiourea, -isourea, -guanidine and -amidine herbicidal agents” (Intellectual Property Department, BASF Aktiengesellschaft, priority 1998, published 2002):
# Assays:
# ECHCG (Barnyardgrass) = experiment: Preemergence herbicidal evaluation; type: in vivo, Echinochloa crus-galli; settings: preemergence, rated 4-5 weeks after treatment, 0-9 scale
# How it was run: (§1)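 Sown cups got a single aqueous acetone spray of test compound (roughly 0.0156–0.500 kg/ha) before seedlings emerged. Evaluation, 4–5 weeks on, used a 0–9 visual scale covering plant stand, vigor, size, malformation, chlorosis and general appearance compared with controls.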
# [1] = tested on: TRZAWR (Wheat, Winter, cv Riband); experiment: Preemergence herbicidal evaluation; type: in vivo, Triticum aestivum; settings: preemergence, rated 4-5 weeks after treatment, 0-9 scale
# How it was run: as §1
# [2] = tested on: ECHORC (Watergrass (Calif.)); experiment: Postemergence weed control under flooded paddy conditions; type: in vivo, Echinochloa oryzoides; settings: postemergence weeds, rated 3 to 4 weeks after treatment
# How it was run: (§2)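 Herbicidal effect is judged by eye on a 0–9 scale versus control, 3–4 weeks after dosing. Dosing is into flood water kept 1.5–3 cm over the soil, at about 0.0313–0.500 kg/ha in aqueous/acetone 50/50 v/v, on 3–5 cm weeds and 1.5–2.5-leaf rice seedlings.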
# ORYSAT (Rice, Tebonnet) = experiment: Preemergence herbicidal evaluation; type: in vivo, Oryza sativa, (L.) Tebonnet; settings: preemergence, rated 4-5 weeks after treatment, 0-9 scale
# How it was run: as §1
# MOOVA (Monochoria) = experiment: Preemergence weed control under flooded paddy conditions; type: in vivo, Monochoria vaginalis; settings: rated 3-4 weeks after treatment
# How it was run: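 Visual injury scored 0-9 against control three to four weeks post-treatment, greenhouse-grown. Application: acetone/water (50/50) solutions dosed directly into flood water (1.5-3 cm over silt loam, planted top 0.5 cm), roughly 0.0313 to 0.500 kg/ha active ingredient.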
# [3] = tested on: CHEAL (Lambsquarters, Common); experiment: Preemergence herbicidal evaluation; type: in vivo, Chenopodium album; settings: preemergence, rated 4-5 weeks after treatment, 0-9 scale
# How it was run: as §1
# [4] = tested on: IPOHE (Morningglory, Ivyleaf); experiment: Preemergence herbicidal evaluation; type: in vivo, Ipomoea hederacea; settings: preemergence, rated 4-5 weeks after treatment, 0-9 scale
# How it was run: as §1
# [5] = tested on: IPOHE (Morningglory, Ivyleaf); experiment: Postemergence herbicidal evaluation; type: in vivo, Ipomoea hederacea; settings: postemergence
# How it was run: (§3)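 Visual 0-9 injury score (stand, vigor, malformation, size, chlorosis, appearance vs untreated) taken four to five weeks post-spray, averaged across repeat tests. Test plants about two weeks old; foliar spray of acetone/water (1:1) with 0.5% surfactant delivering ~0.0156-0.500 kg active/ha.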
# [6] = tested on: TRZAWR (Wheat, Winter, cv Riband); experiment: Postemergence herbicidal evaluation; type: in vivo, Triticum aestivum; settings: postemergence
# How it was run: as §3
# ABUTH (Velvetleaf) = experiment: Postemergence herbicidal evaluation; type: in vivo, Abutilon theophrasti; settings: postemergence
# How it was run: as §3
# [7] = tested on: ECHORC (Watergrass (Calif.)); experiment: Preemergence weed control under flooded paddy conditions; type: in vivo, Echinochloa oryzoides; settings: rated 3-4 weeks after treatment
# How it was run: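 First, seeds or propagules go into the top 0.5 cm of silt loam; next, water is held 1.5 to 3 cm over the soil; then compound (50/50 acetone/water) is pipetted into it at about 0.0313 to 0.500 kg/ha; finally plants are rated visually 0-9 after three to four weeks.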
# SETVI (Foxtail, Green) = experiment: Preemergence herbicidal evaluation; type: in vivo, Setaria viridis; settings: preemergence, rated 4-5 weeks after treatment, 0-9 scale
# How it was run: as §1
# CYPIR (Rice Flatsedge) = experiment: Postemergence weed control under flooded paddy conditions; type: in vivo, Cyperus iria; settings: postemergence weeds, rated 3 to 4 weeks after treatment
# How it was run: as §2
structure (smiles),measurement,setting,value
"CCOC(=O)CN1C(=O)C(CC(=O)NS(=O)(=O)c2ccccc2)SC1=Nc1cc(-n2c(=O)cc(C(F)(F)F)n(C)c2=O)c(F)cc1Cl (centres unmarked) [Compound 100, Ethyl 2-{{2-chloro-5-[3,6-dihydro-3-methyl-2,6-dioxo-4-(trifluoromethyl)-1(2H)-pyrimidinyl]-4-fluorophenyl}imino}-4-oxo-5-{[(phenylsulfonyl)-carbamoyl]methyl]-3-thiazolidineacetate]",ECHCG rating,ECHCG (Barnyardgrass); 0.0313 kg/ha,0.0
same,ECHCG rating,ECHCG (Barnyardgrass); 0.0625 kg/ha,0.0
same,ECHCG rating,ECHCG (Barnyardgrass); 0.1250 kg/ha,0.0
same,ECHCG rating,ECHCG (Barnyardgrass); 0.2500 kg/ha,1.0
same,ECHCG rating,ECHCG (Barnyardgrass); 0.5000 kg/ha,1.0
same,TRZAWR rating,[1]; 0.0313 kg/ha,0.0
same,TRZAWR rating,[1]; 0.0625 kg/ha,0.0
same,TRZAWR rating,[1]; 0.1250 kg/ha,1.0
same,TRZAWR rating,[1]; 0.2500 kg/ha,0.0
same,TRZAWR rating,[1]; 0.5000 kg/ha,1.0
same,Herbicidal rating ECHORC,[2]; Rate 0.0313 kg/ha,0.0
same,Herbicidal rating ECHORC,[2]; Rate 0.0625 kg/ha,0.0
same,Herbicidal rating ECHORC,[2]; Rate 0.1250 kg/ha,0.0
same,Herbicidal rating ECHORC,[2]; Rate 0.2500 kg/ha,3.0
same,Herbicidal rating ECHORC,[2]; Rate 0.5000 kg/ha,4.0
same,ORYSAT rating,"ORYSAT (Rice, Tebonnet); 0.0313 kg/ha",0.0
same,ORYSAT rating,"ORYSAT (Rice, Tebonnet); 0.0625 kg/ha",0.0
same,ORYSAT rating,"ORYSAT (Rice, Tebonnet); 0.1250 kg/ha",0.0
same,ORYSAT rating,"ORYSAT (Rice, Tebonnet); 0.2500 kg/ha",0.0
same,ORYSAT rating,"ORYSAT (Rice, Tebonnet); 0.5000 kg/ha",1.0
same,MOOVA herbicidal effect rating,MOOVA (Monochoria); 0.0313 kg/ha,9.0
same,MOOVA herbicidal effect rating,MOOVA (Monochoria); 0.0625 kg/ha,9.0
same,MOOVA herbicidal effect rating,MOOVA (Monochoria); 0.1250 kg/ha,9.0
same,MOOVA herbicidal effect rating,MOOVA (Monochoria); 0.2500 kg/ha,9.0
same,MOOVA herbicidal effect rating,MOOVA (Monochoria); 0.5000 kg/ha,9.0
same,CHEAL rating,[3]; 0.0313 kg/ha,9.0
same,CHEAL rating,[3]; 0.0625 kg/ha,9.0
same,CHEAL rating,[3]; 0.1250 kg/ha,9.0
same,CHEAL rating,[3]; 0.2500 kg/ha,9.0
same,CHEAL rating,[3]; 0.5000 kg/ha,9.0
same,IPOHE rating,[4]; 0.0313 kg/ha,1.0
same,IPOHE rating,[4]; 0.0625 kg/ha,0.0
same,IPOHE rating,[4]; 0.1250 kg/ha,0.0
same,IPOHE rating,[4]; 0.2500 kg/ha,2.0
same,IPOHE rating,[4]; 0.5000 kg/ha,5.0
same,herbicidal rating IPOHE,[5]; rate 0.0156 kg/ha,5.0
same,herbicidal rating IPOHE,[5]; rate 0.0313 kg/ha,9.0
same,herbicidal rating IPOHE,[5]; rate 0.0625 kg/ha,9.0
same,herbicidal rating IPOHE,[5]; rate 0.1250 kg/ha,9.0
same,herbicidal rating TRZAWR,[6]; rate 0.0156 kg/ha,3.0
same,herbicidal rating TRZAWR,[6]; rate 0.0313 kg/ha,4.0
same,herbicidal rating TRZAWR,[6]; rate 0.0625 kg/ha,3.5
same,herbicidal rating TRZAWR,[6]; rate 0.1250 kg/ha,4.0
same,herbicidal rating ABUTH,ABUTH (Velvetleaf); rate 0.0156 kg/ha,9.0
same,herbicidal rating ABUTH,ABUTH (Velvetleaf); rate 0.0313 kg/ha,9.0
same,herbicidal rating ABUTH,ABUTH (Velvetleaf); rate 0.0625 kg/ha,9.0
same,herbicidal rating ABUTH,ABUTH (Velvetleaf); rate 0.1250 kg/ha,9.0
same,ECHORC herbicidal effect rating,[7]; 0.0313 kg/ha,0.0
same,ECHORC herbicidal effect rating,[7]; 0.0625 kg/ha,0.0
same,ECHORC herbicidal effect rating,[7]; 0.1250 kg/ha,0.0
same,ECHORC herbicidal effect rating,[7]; 0.2500 kg/ha,3.0
same,ECHORC herbicidal effect rating,[7]; 0.5000 kg/ha,4.0
same,SETVI rating,"SETVI (Foxtail, Green); 0.0313 kg/ha",0.0
same,SETVI rating,"SETVI (Foxtail, Green); 0.0625 kg/ha",1.0
same,SETVI rating,"SETVI (Foxtail, Green); 0.1250 kg/ha",0.0
same,SETVI rating,"SETVI (Foxtail, Green); 0.2500 kg/ha",1.0
same,SETVI rating,"SETVI (Foxtail, Green); 0.5000 kg/ha",1.0
same,Herbicidal rating CYPIR,CYPIR (Rice Flatsedge); Rate 0.0313 kg/ha,0.0
same,Herbicidal rating CYPIR,CYPIR (Rice Flatsedge); Rate 0.0625 kg/ha,0.0
same,Herbicidal rating CYPIR,CYPIR (Rice Flatsedge); Rate 0.1250 kg/ha,0.0
same,Herbicidal rating CYPIR,CYPIR (Rice Flatsedge); Rate 0.2500 kg/ha,4.0
same,Herbicidal rating CYPIR,CYPIR (Rice Flatsedge); Rate 0.5000 kg/ha,9.0
